Test results: patent US9802937B2, “Substituted pyrazolo{4,3-D}pyrimidines as kinase inhibitors” (ORIGENIS GMBH, priority 2011, dated 2017)

Tests used:
SYK kinase = target: T1, SYK kinase (Homo sapiens, UniProt P43405); experiment: SYK Assay (OMNIA KINASE ASSAY, SOX peptide fluorescence); assay type: biochemical; settings: apparent Ki calculated from the IC50 using the Cheng-Prusoff equation; 1 mM ATP, 30° C.; read-out: SYK Activities: Ki
T1 construct: purchased Invitrogen, Carlsbad
In short: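 Continuous Omnia assay: SYK phosphorylation of SOX-labelled Tyr 7 peptide (10 µM) with 1 mM ATP and 0.2 mM DTT at 30 °C. Fluorescence (ex 360/em 485 nm) read every 30 s for 30 min. Reaction velocity versus inhibitor concentration gives IC50, converted to apparent Ki by Cheng-Prusoff.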

LRRK2 = LRRK2 (Homo sapiens, UniProt Q5S007); experiment: LRRK2-LRRK2 G2019S-Assay (LanthaScreen Eu Kinase Binding Assay); settings: 5 nM LRRK2 or their mutants, 10 nM tracer 236, RT 1 h; read-out: LRRK2 Activities: IC50
In short: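 TR-FRET tracer-displacement binding assay with 5 nM LRRK2 or mutant, 2 nM Eu-anti-GST antibody and 10 nM tracer 236 in kinase buffer A. Incubated 1 h at RT; 665/615 nm emission ratio read (ex 340 nm). IC50 from variable-slope sigmoidal fit.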

Chain of LRRK2 (Q5S007 970-2527 limits assumed): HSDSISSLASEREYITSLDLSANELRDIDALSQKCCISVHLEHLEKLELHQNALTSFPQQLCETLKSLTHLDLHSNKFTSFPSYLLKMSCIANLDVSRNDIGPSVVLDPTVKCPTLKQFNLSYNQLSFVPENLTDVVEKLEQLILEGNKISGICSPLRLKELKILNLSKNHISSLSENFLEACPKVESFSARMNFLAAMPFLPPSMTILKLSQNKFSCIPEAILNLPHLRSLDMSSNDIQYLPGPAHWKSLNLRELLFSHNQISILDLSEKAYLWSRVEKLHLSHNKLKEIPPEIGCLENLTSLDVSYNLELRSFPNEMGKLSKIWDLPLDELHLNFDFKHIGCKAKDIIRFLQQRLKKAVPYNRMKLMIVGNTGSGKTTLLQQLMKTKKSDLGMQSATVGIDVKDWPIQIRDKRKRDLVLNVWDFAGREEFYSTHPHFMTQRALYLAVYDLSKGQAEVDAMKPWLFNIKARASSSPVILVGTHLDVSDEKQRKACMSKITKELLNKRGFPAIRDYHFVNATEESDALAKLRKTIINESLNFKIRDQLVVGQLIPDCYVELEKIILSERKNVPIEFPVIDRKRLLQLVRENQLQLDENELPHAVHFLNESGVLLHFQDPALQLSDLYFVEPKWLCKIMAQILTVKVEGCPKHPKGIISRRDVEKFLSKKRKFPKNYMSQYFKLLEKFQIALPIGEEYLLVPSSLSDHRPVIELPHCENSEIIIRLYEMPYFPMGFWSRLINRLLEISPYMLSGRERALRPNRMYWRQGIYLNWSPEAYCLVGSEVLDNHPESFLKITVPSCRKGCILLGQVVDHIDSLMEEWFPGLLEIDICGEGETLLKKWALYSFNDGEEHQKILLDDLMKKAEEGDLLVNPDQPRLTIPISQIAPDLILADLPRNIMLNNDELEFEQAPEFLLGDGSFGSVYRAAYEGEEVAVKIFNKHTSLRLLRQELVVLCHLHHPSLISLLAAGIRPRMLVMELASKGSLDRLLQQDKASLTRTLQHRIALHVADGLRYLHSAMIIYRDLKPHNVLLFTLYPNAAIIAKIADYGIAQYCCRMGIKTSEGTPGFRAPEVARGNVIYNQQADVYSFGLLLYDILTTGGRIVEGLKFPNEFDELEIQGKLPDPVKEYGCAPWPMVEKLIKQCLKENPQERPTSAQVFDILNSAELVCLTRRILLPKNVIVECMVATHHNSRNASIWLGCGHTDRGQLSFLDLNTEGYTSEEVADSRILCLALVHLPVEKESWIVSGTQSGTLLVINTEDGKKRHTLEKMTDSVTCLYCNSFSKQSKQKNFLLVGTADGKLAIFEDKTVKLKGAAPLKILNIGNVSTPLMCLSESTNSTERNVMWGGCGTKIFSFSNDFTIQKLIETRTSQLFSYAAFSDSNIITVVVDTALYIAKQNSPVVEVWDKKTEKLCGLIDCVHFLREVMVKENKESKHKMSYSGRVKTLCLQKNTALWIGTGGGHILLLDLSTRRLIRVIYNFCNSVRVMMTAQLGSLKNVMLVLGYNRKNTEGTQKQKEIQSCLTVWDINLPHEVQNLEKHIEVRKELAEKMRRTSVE

| SMILES | Ki (SYK kinase) | IC50 (LRRK2) |
| --- | --- | --- |
| c1csc(-c2nc(Nc3ccc(N4CCSCC4)cc3)c3[nH]ncc3n2)c1 [Example #136, N-(4-thiomorpholinophenyl)-5-(thiophen-2-yl)-1H-pyrazolo[4,3-d]pyrimidin-7-amine] | 0.01 to 0.1 µM | 0.01 to 0.1 µM |
| O=C(c1ccc(Nc2nc(-c3cccs3)nc3cn[nH]c23)cc1)N1CCCC1 [Example #135, pyrrolidin-1-yl(4-((5-(thiophen-2-yl)-1H-pyrazolo[4,3-d]pyrimidin-7-yl)amino)phenyl)methanone] | 0.01 to 0.1 µM | < 0.01 µM |
| Oc1cccc(Nc2nc(-c3ccccc3)nc3cn[nH]c23)c1 [Example #65, 3-((5-phenyl-1H-pyrazolo[4,3-d]pyrimidin-7-yl)amino)phenol] | 0.01 to 0.1 µM | 0.1 to 1 µM |
| O=C1COc2ccc(Nc3nc(-c4ccsc4)nc4cn[nH]c34)cc2N1 [Example #146, 6-((5-(thiophen-3-yl)-1H-pyrazolo[4,3-d]pyrimidin-7-yl)amino)-2H-benzo[b][1,4]oxazin-3(4H)-one] | 0.01 to 0.1 µM | 0.1 to 1 µM |
| CN1CCC(c2nc(Nc3ccc(N(C)C)cc3)c3[nH]ncc3n2)CC1 [Example #28, N1,N1-dimethyl-N4-(5-(1-methylpiperidin-4-yl)-1H-pyrazolo[4,3-d]pyrimidin-7-yl)benzene-1,4-diamine] | 0.01 to 0.1 µM | 0.1 to 1 µM |
| Oc1cccc(Nc2nc(-c3ccsc3)nc3cn[nH]c23)c1 [Example #85, 3-((5-(thiophen-3-yl)-1H-pyrazolo[4,3-d]pyrimidin-7-yl)amino)phenol] | 0.01 to 0.1 µM | 0.1 to 1 µM |
| COc1ccc(-c2nc(Nc3ccc4cn[nH]c4c3)c3[nH]ncc3n2)cc1OC [Example #22, 5-(3,4-dimethoxyphenyl)-N-(1H-indazol-6-yl)-1H-pyrazolo[4,3-d]pyrimidin-7-amine] | 0.01 to 0.1 µM | 0.1 to 1 µM |
| COc1ccc(Nc2nc(C3CCN(C)CC3)nc3cn[nH]c23)cc1OC [Example #51, N-(3,4-dimethoxyphenyl)-5-(1-methylpiperidin-4-yl)-1H-pyrazolo[4,3-d]pyrimidin-7-amine] | 0.01 to 0.1 µM | 0.1 to 1 µM |
| Fc1cccc(F)c1-c1nc(Nc2ccc(N3CCN(C4CC4)CC3)cc2)c2[nH]ncc2n1 [Example #283, N-(4-(4-cyclopropylpiperazin-1-yl)phenyl)-5-(2,6-difluorophenyl)-1H-pyrazolo[4,3-d]pyrimidin-7-amine] | 0.01 to 0.1 µM | 0.1 to 1 µM |
| CN1CCN(C2CCN(C(=O)c3ccc(Nc4nc(-c5cccs5)nc5cn[nH]c45)cc3)CC2)CC1 [Example #297, (4-(4-methylpiperazin-1-yl)piperidin-1-yl)(4-((5-(thiophen-2-yl)-1H-pyrazolo[4,3-d]pyrimidin-7-yl)amino)phenyl)methanone] | < 0.01 µM | 0.01 to 0.1 µM |
| CN(C)c1ccc(Nc2nc(-c3cccs3)nc3cn[nH]c23)cc1 [Example #71, N1,N1-dimethyl-N4-(5-(thiophen-2-yl)-1H-pyrazolo[4,3-d]pyrimidin-7-yl)benzene-1,4-diamine] | < 0.01 µM | 0.01 to 0.1 µM |
| c1ccc(-c2nc(Nc3ccc(N4CCOCC4)cc3)c3[nH]ncc3n2)cc1 [Example #7, N-(4-morpholinophenyl)-5-phenyl-1H-pyrazolo[4,3-d]pyrimidin-7-amine] | < 0.01 µM | 0.1 to 1 µM |
| COc1ccc(Nc2nc(-c3cccc(C(=O)O)c3)nc3cn[nH]c23)cc1OC [Example #194, 3-(7-((3,4-dimethoxyphenyl)amino)-1H-pyrazolo[4,3-d]pyrimidin-5-yl)benzoic acid] | < 0.01 µM | 0.1 to 1 µM |
| Fc1ccccc1-c1nc(Nc2ccc(N3CCOCC3)cc2)c2[nH]ncc2n1 [Example #233, 5-(2-fluorophenyl)-N-(4-morpholinophenyl)-1H-pyrazolo[4,3-d]pyrimidin-7-amine] | < 0.01 µM | 0.1 to 1 µM |
| COc1ccc(-c2nc(Nc3ccc4c(c3)NC(=O)CO4)c3[nH]ncc3n2)cc1OC [Example #26, 6-((5-(3,4-dimethoxyphenyl)-1H-pyrazolo[4,3-d]pyrimidin-7-yl)amino)-2H-benzo[b][1,4]oxazin-3(4H)-one] | 0.01 to 0.1 µM | 0.01 to 0.1 µM |

Second part, the compound after the results:

| Ki (SYK kinase) | IC50 (LRRK2) | SMILES |
| --- | --- | --- |
| < 0.01 µM | 0.1 to 1 µM | COc1ccc(-c2nc(Nc3ccc(N4CCS(=O)(=O)CC4)cc3)c3[nH]ncc3n2)cc1 [Example #169, 4-(4-((5-(4-methoxyphenyl)-1H-pyrazolo[4,3-d]pyrimidin-7-yl)amino)phenyl)thiomorpholine 1,1-dioxide] |
| < 0.01 µM | 0.01 to 0.1 µM | c1csc(-c2nc(Nc3ccc(N4CCOCC4)cc3)c3[nH]ncc3n2)c1 [Example #69, N-(4-morpholinophenyl)-5-(thiophen-2-yl)-1H-pyrazolo[4,3-d]pyrimidin-7-amine] |
| < 0.01 µM | 0.1 to 1 µM | CC(=O)N1CCN(c2ccc(Nc3nc(-c4cccc(S(N)(=O)=O)c4)nc4cn[nH]c34)cc2)CC1 [Example #237, 3-(7-((4-(4-acetylpiperazin-1-yl)phenyl)amino)-1H-pyrazolo[4,3-d]pyrimidin-5-yl)benzenesulfonamide] |
| < 0.01 µM | 0.01 to 0.1 µM | O=C1CCc2ccc(Nc3nc(-c4cscn4)nc4cn[nH]c34)cc2N1 [Example #206, 7-((5-(thiazol-4-yl)-1H-pyrazolo[4,3-d]pyrimidin-7-yl)amino)-3,4-dihydroquinolin-2(1H)-one] |
| < 0.01 µM | 0.1 to 1 µM | COc1cccc(-c2nc(Nc3ccc(OC)c(OC)c3)c3[nH]ncc3n2)c1 [Example #60, N-(3,4-dimethoxyphenyl)-5-(3-methoxyphenyl)-1H-pyrazolo[4,3-d]pyrimidin-7-amine] |
| < 0.01 µM | 0.1 to 1 µM | COc1ccc(-c2nc(Nc3ccc(N4CCN(C(C)=O)CC4)cc3)c3[nH]ncc3n2)cc1 [Example #170, 1-(4-(4-((5-(4-methoxyphenyl)-1H-pyrazolo[4,3-d]pyrimidin-7-yl)amino)phenyl)piperazin-1-yl)ethan-1-one] |
| < 0.01 µM | 0.1 to 1 µM | CN1CCN(c2ccc(Nc3nc(-c4cocn4)nc4cn[nH]c34)cc2)CC1 [Example #200, N-(4-(4-methylpiperazin-1-yl)phenyl)-5-(oxazol-4-yl)-1H-pyrazolo[4,3-d]pyrimidin-7-amine] |
| < 0.01 µM | 0.1 to 1 µM | CN1CCN(c2ccc(Nc3nc(-c4ncco4)nc4cn[nH]c34)cc2)CC1 [Example #203, N-(4-(4-methylpiperazin-1-yl)phenyl)-5-(oxazol-2-yl)-1H-pyrazolo[4,3-d]pyrimidin-7-amine] |
| < 0.01 µM | 0.01 to 0.1 µM | Fc1cccc(-c2nc(Nc3ccc(N4CCOCC4)cc3)c3[nH]ncc3n2)c1 [Example #235, 5-(3-fluorophenyl)-N-(4-morpholinophenyl)-1H-pyrazolo[4,3-d]pyrimidin-7-amine] |
| < 0.01 µM | 0.01 to 0.1 µM | CC(=O)N1CCN(c2ccc(Nc3nc(-c4nccs4)nc4cn[nH]c34)cc2)CC1 [Example #184, 1-(4-(4-((5-(thiazol-2-yl)-1H-pyrazolo[4,3-d]pyrimidin-7-yl)amino)phenyl)piperazin-1-yl)ethan-1-one] |
| < 0.01 µM | 0.1 to 1 µM | COc1cccc(-c2nc(Nc3ccc(N4CCOCC4)cc3)c3[nH]ncc3n2)c1 [Example #61, 5-(3-methoxyphenyl)-N-(4-morpholinophenyl)-1H-pyrazolo[4,3-d]pyrimidin-7-amine] |
